ChEMBL document CHEMBL4406824, “Phenolic N-monosubstituted carbamates: Antitubercular and toxicity evaluation of multi-targeting compounds” (Eur J Med Chem, 2019)
Values after ≈ are worked out from the molar mass of the structure shown.

Assays:
[1] = system: Mycobacterium tuberculosis H37Rv; test: Inhibition of recombinant Mycobacterium tuberculosis H37Rv ICL1 expressed in Escherichia coli BL21 (DE3) cells at 10 uM using (+)-potassium Ds-threo-isocitrate as substrate by glyoxylate phenyl hydrazone formation assay relative to control
Mycobacterium kansasii [2] = test: Antimycobacterial activity against Mycobacterium kansasii 6509/96 after 21 days; assay type: functional; settings: 6509/96, 504 h
Mycobacterium kansasii [3] = test: Antimycobacterial activity against Mycobacterium kansasii 235/80 after 7 days; assay type: functional; settings: 235/80, 168 h
Mycobacterium kansasii [4] = test: Antimycobacterial activity against Mycobacterium kansasii 6509/96 after 14 days; assay type: functional; settings: 6509/96, 336 h
Mycobacterium kansasii [5] = test: Antimycobacterial activity against Mycobacterium kansasii 235/80 after 14 days; assay type: functional; settings: 235/80, 336 h
Mycobacterium avium [6] = test: Antimycobacterial activity against Mycobacterium avium 330/88 after 21 days; assay type: functional; settings: 330/88, 504 h
Mycobacterium avium [7] = test: Antimycobacterial activity against Mycobacterium avium 330/88 after 14 days; assay type: functional; settings: 330/88, 336 h
Mycobacterium kansasii [8] = test: Antimycobacterial activity against Mycobacterium kansasii 235/80 after 21 days; assay type: functional; settings: 235/80, 504 h
Mycobacterium kansasii [9] = test: Antimycobacterial activity against Mycobacterium kansasii 6509/96 after 7 days; assay type: functional; settings: 6509/96, 168 h
[10] = system: Mycobacterium tuberculosis; assay type: functional; settings: H37Rv 331/88, 336 h
[11] = system: Mycobacterium tuberculosis; assay type: functional; settings: H37Rv 331/88, 504 h
in vitro = settings: human, HepG2 cells
Description: Selectivity index, ratio of IC50 for human HepG2 cells to MIC for antimycobacterial activity against Mycobacterium tuberculosis H37Rv

[12] = system: Mycolicibacterium smegmatis; test: Antimycobacterial activity against Mycobacterium smegmatis DSM 43465 after 120 hr by resazurin dye based microdilution method; assay type: functional; settings: DSM 43465, 120 h
HepG2 [13] = test: Cytotoxicity against human HepG2 cells assessed as reduction in cell viability after overnight incubation by MTT assay; assay type: cell-based
HepG2 [14] = test: Cytostatic activity against human HepG2 cells preincubated for overnight in serum free medium followed by compound wash out and further incubated for 72 hrs in presence of serum by MTT assay; assay type: ADME, cell-based
Mycolicibacterium aurum = test: Antimycobacterial activity against Mycobacterium aurum DSM 43999 after 72 hr by resazurin dye based microdilution method; assay type: functional; settings: DSM 43999, 72 h
[15] = system: Mycobacterium tuberculosis; test: Antimycobacterial activity against Mycobacterium tuberculosis H37Ra ITM-M006710 after 48 hr by resazurin dye based microdilution method; assay type: functional; settings: H37Ra ITM-M006710, 48 h

Row | Structure (SMILES) | inhibition [1] | MIC (Mycobacterium kansasii [2]) | MIC (Mycobacterium kansasii [3]) | MIC (Mycobacterium kansasii [4]) | MIC (Mycobacterium kansasii [5]) | MIC (Mycobacterium avium [6]) | MIC (Mycobacterium avium [7]) | MIC (Mycobacterium kansasii [8]) | MIC (Mycobacterium kansasii [9]) | MIC [10] | MIC [11] | selectivity ratio (in vitro) | MIC [12] | IC50 (HepG2 [13]) | IC50 (HepG2 [14]) | MIC (Mycolicibacterium aurum) | MIC [15]
1 | O=C(O)CC[N+](=O)[O-] | 25% | – | – | – | – | – | – | – | – | – | – | – | – | – | – | – | –
2 | Oc1ccc(Cl)cc1 [PARACHLOROPHENOL] | – | > 250 µM | 250 µM (≈ 32.1 µg/mL) | 250 µM (≈ 32.1 µg/mL) | > 250 µM | > 250 µM | > 250 µM | > 250 µM | 125 µM (≈ 16.1 µg/mL) | 125 µM (≈ 16.1 µg/mL) | 250 µM (≈ 32.1 µg/mL) | – | – | – | – | – | –
3 | Nc1ccc(C(=O)O)c(O)c1 [AMINOSALICYLIC ACID] | 0% | 500 µM (≈ 76.6 µg/mL) | 125 µM (≈ 19.1 µg/mL) | 125 µM (≈ 19.1 µg/mL) | 1000 µM (≈ 153 µg/mL) | 125 µM (≈ 19.1 µg/mL) | 32 µM (≈ 4.9 µg/mL) | > 1000 µM | 32 µM (≈ 4.9 µg/mL) | 62.5 µM (≈ 9.57 µg/mL) | 62.5 µM (≈ 9.57 µg/mL) | 35.8 | – | – | – | – | –
4 | O=C(NC1CCCCC1)Oc1ccc(Cl)cc1 | 16% | 250 µM (≈ 63.4 µg/mL) | 250 µM (≈ 63.4 µg/mL) | 250 µM (≈ 63.4 µg/mL) | 500 µM (≈ 127 µg/mL) | 1000 µM (≈ 254 µg/mL) | 500 µM (≈ 127 µg/mL) | 1000 µM (≈ 254 µg/mL) | 125 µM (≈ 31.7 µg/mL) | 500 µM (≈ 127 µg/mL) | 500 µM (≈ 127 µg/mL) | > 0.3 | ≥ 500 mg/L | > 125 µM | > 125 µM | ≥ 500 mg/L | 500 mg/L (≈ 1970 µM)
5 | O=C(NCCc1ccccc1)Oc1ccccc1C(=O)Nc1ccccc1 | 6% | 250 µM (≈ 90.1 µg/mL) | 125 µM (≈ 45.1 µg/mL) | 250 µM (≈ 90.1 µg/mL) | 250 µM (≈ 90.1 µg/mL) | 125 µM (≈ 45.1 µg/mL) | 125 µM (≈ 45.1 µg/mL) | 250 µM (≈ 90.1 µg/mL) | 125 µM (≈ 45.1 µg/mL) | 125 µM (≈ 45.1 µg/mL) | 125 µM (≈ 45.1 µg/mL) | > 1 | 31.2 mg/L (≈ 86.7 µM) | > 125 µM | 55.6 µM | 31.2 mg/L (≈ 86.7 µM) | 15.6 mg/L (≈ 43.3 µM)
